Results reported in patent publication US20210254173A1, “PREDICTIVE 7-GENE ASSAY AND PROGNOSTIC PROTEIN BIOMARKER FOR NON-SMALL CELL LUNG CANCER” (West Virginia University, priority 2018, published 2021).

Assays:
Format in all cases: in vivo, human
SLC39A8 = experiment: Chemoresponse prediction: Cox proportional hazard model using SLC39A8 ΔCt values in qRT-PCR assays of NSCLC patients; conditions: prediction by high SLC39A8 expression
Experimental: (§1) Patient samples. All NSCLC patients were staged I, II, or IIIA at the time of diagnosis. Tumor tissues were collected in surgical resections and were snap-frozen at −80° C. until used for RNA extraction. Tumor cell content was above 50% for qRT-PCR assays. Those with missing AJCC staging information, missing histology, death within 30 days of resection or from other disease conditions were excluded from further analysis. A total of 122 NSCLC patient samples were obtained from Case Western Reserve University (CWRU) Comprehensive Cancer Center. […] The tissue collection in this study was approved by an Institutional Review Board (IRB) at each institution.
RNA extraction, and quality and concentration assessments. […] The quality and integrity of the RNA, the 28S to 18S ratio, and a visual image of the 28S and 18S bands were evaluated on the 2100 Bioanalyzer (Agilent Technologies, CA). […] The RNA concentration of each sample was assessed using a Nanodrop-1000 Spectrophotometer (NanoDrop Tech, Germany). […]
(§2) Real-time quantitative RT-PCR low-density arrays. […]
(§3) Three hundred thirty seven (337) tumor samples were analyzed with good RNA quality using TaqMan microfluidic low-density array (LDA) plates on an ABI 7900HT Fast RT-PCR instrument (Applied Biosystems).

FUT7 = experiment: Chemoresponse prediction: Cox proportional hazard model using FUT7 ΔCt values in qRT-PCR assays of NSCLC patients
Experimental: Patient samples. All NSCLC patients were staged I, II, or IIIA at the time of diagnosis. Tumor tissues were collected in surgical resections and were snap-frozen at −80° C. until used for RNA extraction. Tumor cell content was above 50% for qRT-PCR assays. Those with missing AJCC staging information, missing histology, death within 30 days of resection or from other disease conditions were excluded from further analysis. A total of 122 NSCLC patient samples were obtained from Case Western Reserve University (CWRU) Comprehensive Cancer Center. Total RNA of good quality was extracted from 89 tumor specimens. […]
RNA extraction, and quality and concentration assessments. […] The quality and integrity of the RNA, the 28S to 18S ratio, and a visual image of the 28S and 18S bands were evaluated on the 2100 Bioanalyzer (Agilent Technologies, CA). RNA assessed as having good quality from […] tumor samples was included for further analysis. The RNA concentration of each sample was assessed using a Nanodrop-1000 Spectrophotometer (NanoDrop Tech, Germany). […]
as §2
Three hundred thirty seven (337) tumor samples were analyzed with good RNA quality using TaqMan microfluidic low-density array (LDA) plates on an ABI 7900HT Fast RT-PCR instrument (Applied Biosystems). Total RNA samples were analyzed on an Agilent 2100 Bioanalyzer RNA 6000 Nano LabChip. […]

ABCC4 = experiment: Chemoresponse prediction: Cox proportional hazard model using ABCC4 ΔCt values in qRT-PCR assays of NSCLC patients
Experimental: as §1
RNA extraction, and quality and concentration assessments. Total RNA was extracted from snap-frozen tumor tissues using a RNeasy mini kit according the manufacturer's protocol (Qiagen, USA), followed by elution in 30 μl of RNase-free water and storage at −80° C. The quality and integrity of the RNA, the 28S to 18S ratio, and a visual image of the 28S and 18S bands were evaluated on the 2100 Bioanalyzer (Agilent Technologies, CA). […] The RNA concentration of each sample was assessed using a Nanodrop-1000 Spectrophotometer (NanoDrop Tech, Germany).
Generation of complementary DNA (cDNA). The reverse transcriptase polymerase chain reaction was used to convert the high-quality single-stranded RNA samples to double-stranded cDNA, using an Applied Biosystems GeneAmp® PCR 9700 machine (Foster City, Calif.). For standardization across all samples, one microgram of RNA was used to generate cDNA.
Real-time quantitative RT-PCR low-density arrays. Real-time qRT-PCR assays of independent patient cohorts of NSCLC tumor samples were used to further select biomarkers to form a multi-gene assay from prognostic genes identified from microarray data in our previous studies.
as §3

[1] = ABCC4 ΔCt as covariate, Cox model, NSCLC patients treated with the named agent(s)

| Structure (SMILES) | Chemosensitive/resistant (SLC39A8) | Hazard ratio of death from disease with 95% CI (FUT7; FUT7 ΔCt as covariate, Cox model, NSCLC patients treated with the named agent) | Chemosensitive/resistant (FUT7; prediction by high FUT7 expression) | Hazard ratio of death from disease with 95% CI (ABCC4; [1]) | Hazard ratio of recurrence with 95% CI (ABCC4; [1]) | Chemosensitive/resistant (ABCC4; prediction by high ABCC4 expression, patients treated with the named agent(s)) |
| --- | --- | --- | --- | --- | --- | --- |
| Nc1nc2[nH]cc(CCc3ccc(C(=O)N[C@@H](CCC(=O)O)C(=O)O)cc3)c2c(=O)[nH]1 [Alimta, pemetrexed] | Chemoresistant |  |  |  |  |  |
| N.N.O=C([O-])C1(C(=O)[O-])CCC1.[Pt+2] [Carboplatin, carboplatin] |  | 1.605 | Chemosensitive |  |  |  |
| CC(=O)O[C@H]1C(=O)[C@@]2(C)[C@H]([C@H](OC(=O)c3ccccc3)[C@]3(O)C[C@H](OC(=O)[C@H](O)[C@@H](NC(=O)c4ccccc4)c4ccccc4)C(C)=C1C3(C)C)[C@]1(OC(C)=O)CO[C@@H]1C[C@@H]2O [Taxol, paclitaxel] | Chemoresistant |  |  | 0.403 | 0.48 | Chemoresistant |
